# Assay results published in patent US10688031B2, “Low-toxicity sophorolipid-containing composition and use therefor” (Saraya Co., Ltd., priority 2013, dated 2020).
# Legend:
# [1] = Critical micelle concentration (CMC) and surface tension-reducing ability, Wilhelmy method; type: physicochemical
# Description: The critical micelle concentration (CMC) and surface tension-reducing ability were measured according to the Wilhelmy method. The measurements were performed at pH 7 at 20° C. using a CBVP-Z automatic surface tensiometer (produced by Kyowa Interface Science Co., Ltd.). For pH adjustment, an aqueous sodium hydroxide solution or an aqueous hydrochloric acid solution was used.
# The critical micelle concentration (CMC) and surface tension-reducing ability of these SL-containing compositions were measured, and their performance as surfactants (wettability, solubilizing power, detergency, and foamability) was evaluated. The critical micelle concentration (CMC) and surface tension-reducing ability were measured in the same manner as in Test Example 2 according to the Wilhelmy method. Specifically, the measurement was performed at pH 7 at 20° C. using a CBVP-Z automatic surface tensiometer (produced by Kyowa Interface Science Co., Ltd.).
# HeLa cells = test: Cytotoxicity test using HeLa cells (MTT assay); type: cell-based, human; details: 48 hours of treatment
# Description: HeLa cells (Kurabo Industries, Ltd.) were seeded in a 96-well plate to a concentration of 2×10^4 cells/well and cultured in Dulbecco's Modified Eagle Medium (produced by Nissui Pharmaceutical Co., Ltd.) containing 10% NCS (Newborn Calf Serum: produced by Invitrogen), non-essential amino acids, 58 μg/ml L-glutamic acid, 60 μg/ml kanamycin at 37° C., 5% CO2 for 72 hours. The medium was replaced with media containing the samples. After 48 hours, each medium was replaced with a medium containing 1 mg/ml MTT (3-(4,5-dimethyl-2-thiazolyl)-2,5-diphenyl-2H-tetrazolium bromide). After the treatment was allowed to proceed for 2 hours, formazan dye was extracted with isopropanol. Absorbance at a wavelength of 570 nm was measured. The viability % of the cells was calculated according to the following Formula.
# The cell viability was calculated from the above MTT assay, and the cell lethal concentration (IC50) was determined from the obtained cell viability.
Structure (SMILES),"CMC ([1]; Table 5, repeated from Test Example 2)","Critical micelle concentration (CMC) ([1]; pH 7, 20° C., Table 4)","Surface tension-reducing ability ([1]; pH 7, 20° C., Table 4)",cell lethal concentration (IC50) (HeLa cells)
"CCCCCCCCCCCCOS(=O)(=O)[O-].[Na+] [SLS, Sodium Lauryl Sulfate]",300 ppm,300 ppm,34.0 mN/m,<10 ppm
CCCCCCCC/C=C\CCCCCCCC(=O)O [oleic acid],–,–,–,300 ppm
